Test results as given in ChEMBL document CHEMBL5150047, “Novel bioactive hybrid Celecoxib-HDAC Inhibitor, induces apoptosis in human acute lymphoblastic leukemia cells” (Bioorg Med Chem, 2022).
The source made the active and inactive calls. The rule behind the calls is not given here.

How the values were obtained:
NALM-6 [1] = assay: Induction of apoptosis in human NALM-6 cells assessed as necrotic cells at 10 uM incubated for 48 hrs by AnnexinV-FITC/PI staining based flow cytometry (reference value: 0.01%); assay type: functional
HUVEC [2] = assay: Cytotoxicity against human HUVEC cells assessed as reduction in cell viability by CCK8 assay; assay type: toxicity, cell-based
L02 = assay: Cytotoxicity against human L02 cells assessed as reduction in cell viability by CCK8 assay; assay type: toxicity, cell-based
Histone deacetylase = assay: Inhibition of HDAC in human NALM-6 nuclear extract incubated for 48 hrs by fluorometric analysis; assay type: subcellular, Nucleus
NALM-6 [3] = assay: Induction of apoptosis in human NALM-6 cells assessed as viable cells at 10 uM incubated for 48 hrs by AnnexinV-FITC/PI staining based flow cytometry (reference value: 97.98%); assay type: functional; conditions: read-out: Activity
NALM-6 [4] = assay: Induction of apoptosis in human NALM-6 cells assessed as late apoptotic cells at 30 uM incubated for 48 hrs by AnnexinV-FITC/PI staining based flow cytometry (reference value: 0.92%); assay type: functional
NALM-6 [5] = assay: Induction of apoptosis in human NALM-6 cells assessed as viable cells at 30 uM incubated for 48 hrs by AnnexinV-FITC/PI staining based flow cytometry (reference value: 97.98%); assay type: functional; conditions: read-out: Activity
MCF-10A = assay: Cytotoxicity against human MCF-10A cells assessed as reduction in cell viability by CCK8 assay; assay type: toxicity, cell-based
K562 = assay: Antiproliferative activity against human K562 cells assessed as reduction in cell viability incubated for 48 hrs by CCK8 assay; assay type: functional, cell-based; conditions: K562, 48 h
NALM-6 [6] = assay: Induction of apoptosis in human NALM-6 cells assessed as necrotic cells at 30 uM incubated for 48 hrs by AnnexinV-FITC/PI staining based flow cytometry (reference value: 0.01%); assay type: functional
NALM-6 [7] = assay: Induction of cell cycle arrest in human NALM-6 cells assessed as accumulation of cells at G2 phase at 30 uM incubated for 48 hrs by PI/RNase staining based flow cytometry; assay type: functional
NALM-6 [8] = assay: Downregulation of HDAC2 expression in human NALM-6 cells incubated for 48 hrs by western blot analysis; assay type: functional, cell-based; conditions: dose 10-30 µM, DDE = dose-dependent effect
NALM-6 [9] = assay: Potency index, ratio of celecoxib IC50 to test compound IC50 for antiproliferative activity against human NALM-6 cells assessed as reduction in cell viability incubated for 48 hrs by CCK8 assay; assay type: functional
NALM-6 [10] = assay: Induction of apoptosis in human NALM-6 cells assessed as early apoptotic cells at 30 uM incubated for 48 hrs by AnnexinV-FITC/PI staining based flow cytometry (reference value: 1.09%); assay type: functional
NALM-6 [11] = assay: Induction of apoptosis in human NALM-6 cells assessed as increase in cleaved PARP expression at 10 to 30 uM incubated for 48 hrs by western blot analysis; assay type: functional, cell-based; conditions: dose 10-30 µM
NALM-6 [12] = assay: Induction of cell cycle arrest in human NALM-6 cells assessed as reduction in proportion of cells at S phase at 30 uM incubated for 48 hrs by PI/RNase staining based flow cytometry; assay type: functional
NALM-6 [13] = assay: Induction of apoptosis in human NALM-6 cells assessed as early apoptotic cells at 10 uM incubated for 48 hrs by AnnexinV-FITC/PI staining based flow cytometry (reference value: 1.09%); assay type: functional
HL-60 = assay: Antiproliferative activity against human HL-60 cells assessed as reduction in cell viability incubated for 48 hrs by CCK8 assay; assay type: functional, cell-based; conditions: HL-60, 48 h
NALM-6 [14] = assay: Antiproliferative activity against human NALM-6 cells assessed as reduction in cell viability incubated for 48 hrs by CCK8 assay; assay type: functional, cell-based; conditions: NALM-6, 48 h
NALM-6 [15] = assay: Induction of apoptosis in human NALM-6 cells assessed as late apoptotic cells at 10 uM incubated for 48 hrs by AnnexinV-FITC/PI staining based flow cytometry (reference value: 0.92%); assay type: functional
NALM-6 [16] = assay: Antiproliferative activity against human NALM-6 cells assessed as reduction in cell viability incubated for 24 hrs by CCK8 assay; assay type: functional, cell-based
Jurkat = assay: Antiproliferative activity against human Jurkat cells assessed as reduction in cell viability incubated for 48 hrs by CCK8 assay; assay type: functional, cell-based
HUVEC [17] = assay: Cytotoxicity against human HUVEC cells assessed as reduction in cell viability up to 50 uM by CCK8 assay; assay type: toxicity, cell-based

Cc1ccc(-c2cc(C(F)(F)F)nn2-c2ccc(S(=O)(=O)NC(=O)CCCCC[Se]C#N)cc2)cc1
Activity (NALM-6 [1]): 0.09% | Activity (HUVEC [2]): Non-Toxic | Activity (L02): Non-Toxic | IC50 (Histone deacetylase): 11.75 µM | viability at 10 µM (NALM-6 [3]): 97.7% | Activity (NALM-6 [4]): 4.17% | viability at 30 µM (NALM-6 [5]): 85.8% | Activity (MCF-10A): Non-Toxic | IC50 (K562): 11.7 µM | Activity (NALM-6 [6]): 0.49% | Activity (NALM-6 [7]): Active | inhibition (NALM-6 [8]): Dde | Ratio IC50 (NALM-6 [9]): 2.8 | Activity (NALM-6 [10]): 9.51% | Activity (NALM-6 [11]): Active | Activity (NALM-6 [12]): Active | Activity (NALM-6 [13]): 1.53% | IC50 (HL-60): 26.8 µM | IC50 (NALM-6 [14]): 9.95 µM | Activity (NALM-6 [15]): 0.72% | Activity (NALM-6 [16]): Active | IC50 (Jurkat): 12.6 µM

O=C(CCCCCCC(=O)Nc1ccccc1)NO [VORINOSTAT]
Activity (HUVEC [2]): Toxic | Activity (L02): Toxic | Activity (MCF-10A): Toxic

Cc1ccc(-c2cc(C(F)(F)F)nn2-c2ccc(S(N)(=O)=O)cc2)cc1 [CELECOXIB]
IC50 (K562): 57.8 µM | Activity (HUVEC [17]): Non-Toxic | IC50 (HL-60): 44.7 µM | IC50 (NALM-6 [14]): 28.6 µM | IC50 (Jurkat): 32.1 µM

Cc1ccc(-c2cc(C(F)(F)F)nn2-c2ccc(S(=O)(=O)NC(=O)CCCC[Se]C#N)cc2)cc1
IC50 (K562): > 100 µM | IC50 (HL-60): 59.8 µM | IC50 (NALM-6 [14]): > 100 µM | IC50 (Jurkat): > 100 µM

Cc1ccc(-c2cc(C(F)(F)F)nn2-c2ccc(S(=O)(=O)NC(=O)CCC[Se]C#N)cc2)cc1
IC50 (K562): > 100 µM | IC50 (HL-60): > 100 µM | IC50 (NALM-6 [14]): > 100 µM | IC50 (Jurkat): > 100 µM

Cc1ccc(-c2cc(C(F)(F)F)nn2-c2ccc(S(=O)(=O)NC(=O)C[Se]C#N)cc2)cc1
IC50 (K562): 44.1 µM | IC50 (HL-60): 30 µM | IC50 (NALM-6 [14]): 34.9 µM | IC50 (Jurkat): 33.3 µM

Cc1ccc(-c2cc(C(F)(F)F)nn2-c2ccc(S(=O)(=O)NC(=O)CC[Se]C#N)cc2)cc1
IC50 (K562): > 100 µM | IC50 (HL-60): 62.5 µM | IC50 (NALM-6 [14]): > 100 µM | IC50 (Jurkat): > 100 µM
